Data reported in patent US11208412B2 (DAEGU-GYEONGBUK MEDICAL INNOVATION FOUNDATION, priority 2017, dated 2021).

Key:
Test in all cases: Kinase selectivity, DiscoverX scanMAX Kinase assay panel (% control)
Type in all cases: binding
[1] = biological target: T1, kinases of the scanMAX Kinase assay panel (Homo sapiens, UniProt P06241); details: FYN; 1 uM
T1 construct: purchased DiscoverX Co. (contract measurement) scanMAX Kinase assay panel
How it was run: (§1)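 Each enzyme is treated with drug at 1 uM in DMSO, then signal is scaled between a positive control (0%) and DMSO (100%) to give % control. Kinases with % control under 35% are scored as inhibited.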

[2] = biological target: T2, kinases of the scanMAX Kinase assay panel (Homo sapiens, UniProt O15264); details: p38-delta; 1 uM
T2 construct: purchased DiscoverX Co. (contract measurement) scanMAX Kinase assay panel
T2 sequence (O15264 1-365): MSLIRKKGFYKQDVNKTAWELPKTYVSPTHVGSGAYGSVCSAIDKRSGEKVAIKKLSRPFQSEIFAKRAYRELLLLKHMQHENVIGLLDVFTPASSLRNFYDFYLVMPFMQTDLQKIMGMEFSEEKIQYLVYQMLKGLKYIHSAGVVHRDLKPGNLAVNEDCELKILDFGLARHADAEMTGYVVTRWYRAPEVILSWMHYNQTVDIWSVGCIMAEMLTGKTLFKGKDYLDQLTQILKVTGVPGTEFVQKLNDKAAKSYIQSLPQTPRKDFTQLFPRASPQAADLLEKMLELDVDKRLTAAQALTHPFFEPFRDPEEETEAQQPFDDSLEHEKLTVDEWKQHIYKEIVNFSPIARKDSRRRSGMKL
How it was run: as §1

[3] = biological target: T3, kinases of the scanMAX Kinase assay panel (Homo sapiens, UniProt P06213); details: INSR; 1 uM
T3 construct: purchased DiscoverX Co. (contract measurement) scanMAX Kinase assay panel
T3 sequence (P06213 28-1382): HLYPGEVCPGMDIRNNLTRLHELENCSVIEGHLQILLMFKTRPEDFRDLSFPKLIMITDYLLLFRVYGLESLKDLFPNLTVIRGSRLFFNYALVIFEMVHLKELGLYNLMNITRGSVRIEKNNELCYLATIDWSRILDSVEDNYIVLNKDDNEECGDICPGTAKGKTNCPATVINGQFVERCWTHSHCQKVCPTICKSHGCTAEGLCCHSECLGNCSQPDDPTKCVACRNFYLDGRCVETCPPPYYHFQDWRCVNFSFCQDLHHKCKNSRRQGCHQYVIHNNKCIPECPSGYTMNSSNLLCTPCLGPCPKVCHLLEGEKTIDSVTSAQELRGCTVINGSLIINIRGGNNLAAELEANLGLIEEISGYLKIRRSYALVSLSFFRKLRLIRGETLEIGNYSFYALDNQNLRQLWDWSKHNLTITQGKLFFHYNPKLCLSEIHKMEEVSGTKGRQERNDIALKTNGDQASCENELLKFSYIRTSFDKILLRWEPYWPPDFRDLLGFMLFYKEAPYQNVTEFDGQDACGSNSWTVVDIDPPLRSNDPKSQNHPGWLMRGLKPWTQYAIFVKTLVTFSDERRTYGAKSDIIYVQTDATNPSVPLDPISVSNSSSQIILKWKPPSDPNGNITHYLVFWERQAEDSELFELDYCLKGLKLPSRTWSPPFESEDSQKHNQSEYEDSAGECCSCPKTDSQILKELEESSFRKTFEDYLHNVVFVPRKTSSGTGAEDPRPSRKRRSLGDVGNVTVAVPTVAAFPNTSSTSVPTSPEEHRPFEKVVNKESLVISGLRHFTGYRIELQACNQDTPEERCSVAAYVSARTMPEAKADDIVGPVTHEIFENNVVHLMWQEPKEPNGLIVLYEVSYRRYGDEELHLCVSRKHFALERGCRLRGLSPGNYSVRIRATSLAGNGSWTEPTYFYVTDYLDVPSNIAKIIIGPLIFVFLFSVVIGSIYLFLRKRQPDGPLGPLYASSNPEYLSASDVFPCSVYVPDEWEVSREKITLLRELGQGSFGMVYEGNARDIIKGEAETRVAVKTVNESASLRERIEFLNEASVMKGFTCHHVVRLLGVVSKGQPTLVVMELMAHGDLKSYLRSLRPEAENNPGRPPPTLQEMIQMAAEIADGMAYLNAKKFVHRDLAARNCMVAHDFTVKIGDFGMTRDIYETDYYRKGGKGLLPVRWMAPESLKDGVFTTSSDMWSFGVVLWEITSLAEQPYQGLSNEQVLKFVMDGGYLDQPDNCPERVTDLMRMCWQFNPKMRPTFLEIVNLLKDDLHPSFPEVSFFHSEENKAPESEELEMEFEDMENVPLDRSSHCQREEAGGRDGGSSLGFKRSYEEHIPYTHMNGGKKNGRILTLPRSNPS
How it was run: as §1

[4] = biological target: T4, kinases of the scanMAX Kinase assay panel (Homo sapiens, UniProt Q8IVW4); details: CDKL3; 1 uM
T4 construct: purchased DiscoverX Co. (contract measurement) scanMAX Kinase assay panel
How it was run: as §1

[5] = biological target: T5, kinases of the scanMAX Kinase assay panel (Homo sapiens, UniProt P31749); details: AKT1; 1 uM
T5 construct: purchased DiscoverX Co. (contract measurement) scanMAX Kinase assay panel
T5 sequence (P31749 whole entry): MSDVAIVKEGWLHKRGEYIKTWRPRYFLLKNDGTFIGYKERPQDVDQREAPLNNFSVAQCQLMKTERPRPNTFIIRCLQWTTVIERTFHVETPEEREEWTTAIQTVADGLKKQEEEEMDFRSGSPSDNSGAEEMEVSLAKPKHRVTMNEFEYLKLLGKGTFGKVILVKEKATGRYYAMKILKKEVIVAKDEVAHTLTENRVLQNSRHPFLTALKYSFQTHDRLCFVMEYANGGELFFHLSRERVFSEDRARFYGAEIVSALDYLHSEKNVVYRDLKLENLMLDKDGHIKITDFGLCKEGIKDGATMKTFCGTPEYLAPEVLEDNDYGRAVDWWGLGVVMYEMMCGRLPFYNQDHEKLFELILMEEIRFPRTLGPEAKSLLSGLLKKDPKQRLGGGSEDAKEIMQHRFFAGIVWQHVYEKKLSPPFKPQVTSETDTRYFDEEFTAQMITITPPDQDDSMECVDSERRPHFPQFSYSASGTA
How it was run: as §1

[6] = biological target: T6, kinases of the scanMAX Kinase assay panel (Homo sapiens, UniProt P42336, H1047Y); details: PIK3CA(H1047Y); 1 uM
T6 construct: purchased DiscoverX Co. (contract measurement) scanMAX Kinase assay panel
How it was run: as §1

[7] = biological target: T7, kinases of the scanMAX Kinase assay panel (Homo sapiens, UniProt Q9H3Y6); details: kinase SRMS; 1 uM in DMSO
T7 construct: purchased DiscoverX Co. (contract measurement) scanMAX Kinase assay panel
How it was run: as §1

[8] = biological target: T8, kinases of the scanMAX Kinase assay panel (Homo sapiens, UniProt Q9UPE1); details: kinase SRPK3; 1 uM in DMSO
T8 construct: purchased DiscoverX Co. (contract measurement) scanMAX Kinase assay panel
How it was run: as §1

[9] = biological target: T9, kinases of the scanMAX Kinase assay panel (Homo sapiens, UniProt Q15208); details: NDR1; 1 uM
T9 construct: purchased DiscoverX Co. (contract measurement) scanMAX Kinase assay panel
How it was run: as §1

[10] = biological target: T10, kinases of the scanMAX Kinase assay panel (Homo sapiens, UniProt Q5S007); details: LRRK2; 1 uM
T10 construct: purchased DiscoverX Co. (contract measurement) scanMAX Kinase assay panel
T10 sequence (Q5S007 whole entry): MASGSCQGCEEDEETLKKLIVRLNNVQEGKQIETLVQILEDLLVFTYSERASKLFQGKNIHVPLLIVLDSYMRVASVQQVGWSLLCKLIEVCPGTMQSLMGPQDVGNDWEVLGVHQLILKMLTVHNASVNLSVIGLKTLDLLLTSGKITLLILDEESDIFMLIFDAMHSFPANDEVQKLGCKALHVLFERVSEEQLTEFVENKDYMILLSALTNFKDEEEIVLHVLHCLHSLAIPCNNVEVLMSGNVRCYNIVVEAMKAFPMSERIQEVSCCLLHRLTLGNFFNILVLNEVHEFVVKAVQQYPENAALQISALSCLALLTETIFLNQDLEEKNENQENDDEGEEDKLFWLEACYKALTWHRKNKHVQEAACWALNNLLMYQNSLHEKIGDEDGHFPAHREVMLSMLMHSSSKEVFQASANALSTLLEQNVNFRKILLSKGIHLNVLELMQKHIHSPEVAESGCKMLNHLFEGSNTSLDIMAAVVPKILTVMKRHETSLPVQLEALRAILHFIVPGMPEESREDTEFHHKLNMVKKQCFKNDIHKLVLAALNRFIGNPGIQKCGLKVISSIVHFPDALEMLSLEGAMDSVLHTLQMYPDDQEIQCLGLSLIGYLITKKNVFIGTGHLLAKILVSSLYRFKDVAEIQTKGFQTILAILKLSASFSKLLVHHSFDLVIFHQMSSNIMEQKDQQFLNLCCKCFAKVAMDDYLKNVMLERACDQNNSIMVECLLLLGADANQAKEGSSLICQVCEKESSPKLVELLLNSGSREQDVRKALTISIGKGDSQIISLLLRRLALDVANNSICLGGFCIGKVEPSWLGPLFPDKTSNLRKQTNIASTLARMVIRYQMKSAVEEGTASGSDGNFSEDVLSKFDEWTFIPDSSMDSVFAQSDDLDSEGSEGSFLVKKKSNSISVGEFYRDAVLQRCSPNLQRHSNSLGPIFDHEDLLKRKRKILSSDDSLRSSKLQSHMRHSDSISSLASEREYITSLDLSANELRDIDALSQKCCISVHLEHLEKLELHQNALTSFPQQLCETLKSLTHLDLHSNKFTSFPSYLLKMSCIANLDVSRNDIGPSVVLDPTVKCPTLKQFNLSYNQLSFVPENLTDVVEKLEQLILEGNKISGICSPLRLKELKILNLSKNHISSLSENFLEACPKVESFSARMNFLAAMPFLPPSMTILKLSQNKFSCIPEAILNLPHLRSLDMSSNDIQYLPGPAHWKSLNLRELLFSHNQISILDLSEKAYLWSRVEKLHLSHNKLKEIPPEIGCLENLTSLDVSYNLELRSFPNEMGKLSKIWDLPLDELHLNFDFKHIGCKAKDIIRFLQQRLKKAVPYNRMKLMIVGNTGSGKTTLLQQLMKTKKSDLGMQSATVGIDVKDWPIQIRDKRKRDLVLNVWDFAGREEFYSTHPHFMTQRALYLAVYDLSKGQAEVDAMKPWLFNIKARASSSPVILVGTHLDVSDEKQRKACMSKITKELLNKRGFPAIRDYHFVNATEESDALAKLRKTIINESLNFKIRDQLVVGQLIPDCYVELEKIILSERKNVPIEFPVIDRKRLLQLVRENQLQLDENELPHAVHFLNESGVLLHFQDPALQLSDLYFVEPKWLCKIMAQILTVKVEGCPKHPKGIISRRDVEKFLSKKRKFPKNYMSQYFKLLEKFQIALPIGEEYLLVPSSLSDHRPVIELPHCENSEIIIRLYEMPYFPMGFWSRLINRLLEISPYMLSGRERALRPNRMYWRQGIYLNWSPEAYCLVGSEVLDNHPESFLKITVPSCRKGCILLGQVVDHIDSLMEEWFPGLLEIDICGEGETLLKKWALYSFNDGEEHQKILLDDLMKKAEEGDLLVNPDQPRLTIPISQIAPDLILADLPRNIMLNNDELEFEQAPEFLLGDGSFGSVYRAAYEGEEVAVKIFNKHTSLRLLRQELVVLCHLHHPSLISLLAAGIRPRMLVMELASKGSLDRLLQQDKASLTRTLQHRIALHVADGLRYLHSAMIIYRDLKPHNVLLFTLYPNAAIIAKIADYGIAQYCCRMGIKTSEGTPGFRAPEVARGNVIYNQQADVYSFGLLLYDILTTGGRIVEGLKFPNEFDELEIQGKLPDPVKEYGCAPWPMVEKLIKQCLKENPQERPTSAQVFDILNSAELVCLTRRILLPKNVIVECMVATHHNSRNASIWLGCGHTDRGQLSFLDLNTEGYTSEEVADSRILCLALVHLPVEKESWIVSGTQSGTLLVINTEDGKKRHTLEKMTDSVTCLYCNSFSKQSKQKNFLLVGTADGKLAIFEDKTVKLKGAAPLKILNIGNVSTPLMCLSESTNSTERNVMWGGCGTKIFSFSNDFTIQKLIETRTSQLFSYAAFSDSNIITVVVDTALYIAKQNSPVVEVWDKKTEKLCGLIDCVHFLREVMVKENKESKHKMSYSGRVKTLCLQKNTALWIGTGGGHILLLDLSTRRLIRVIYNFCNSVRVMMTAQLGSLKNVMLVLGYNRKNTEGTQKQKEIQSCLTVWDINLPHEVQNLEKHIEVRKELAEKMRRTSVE
How it was run: as §1

[11] = biological target: T11, kinases of the scanMAX Kinase assay panel (Homo sapiens, UniProt Q96SB4); details: kinase SRPK1; 1 uM in DMSO
T11 construct: purchased DiscoverX Co. (contract measurement) scanMAX Kinase assay panel
How it was run: as §1

[12] = biological target: T12, kinases of the scanMAX Kinase assay panel (Mycobacterium tuberculosis, UniProt P9WI81); details: read-out: % control
T12 construct: purchased DiscoverX Co. (contract measurement) scanMAX Kinase assay panel
T12 sequence (P9WI81 whole entry): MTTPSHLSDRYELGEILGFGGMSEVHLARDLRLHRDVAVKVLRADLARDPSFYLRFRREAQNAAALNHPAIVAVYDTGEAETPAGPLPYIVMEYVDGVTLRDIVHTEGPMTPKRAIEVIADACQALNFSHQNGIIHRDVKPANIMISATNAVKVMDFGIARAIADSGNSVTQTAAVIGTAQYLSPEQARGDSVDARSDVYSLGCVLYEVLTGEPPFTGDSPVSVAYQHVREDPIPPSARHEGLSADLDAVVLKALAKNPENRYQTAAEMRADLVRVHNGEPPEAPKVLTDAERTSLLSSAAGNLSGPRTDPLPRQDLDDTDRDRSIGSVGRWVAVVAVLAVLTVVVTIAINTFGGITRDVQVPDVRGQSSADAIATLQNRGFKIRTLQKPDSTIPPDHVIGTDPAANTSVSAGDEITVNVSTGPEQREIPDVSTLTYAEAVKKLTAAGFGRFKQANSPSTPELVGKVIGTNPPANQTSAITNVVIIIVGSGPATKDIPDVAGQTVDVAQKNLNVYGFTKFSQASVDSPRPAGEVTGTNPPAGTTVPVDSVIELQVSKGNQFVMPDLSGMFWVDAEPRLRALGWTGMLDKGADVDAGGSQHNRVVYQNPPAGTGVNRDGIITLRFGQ
How it was run: as §1

[13] = biological target: T13, kinases of the scanMAX Kinase assay panel (Homo sapiens, UniProt Q14680); details: MELK; 1 uM
T13 construct: purchased DiscoverX Co. (contract measurement) scanMAX Kinase assay panel
How it was run: as §1

[14] = biological target: T14, kinases of the scanMAX Kinase assay panel (Homo sapiens, UniProt P53667); details: LIMK1; 1 uM
T14 construct: purchased DiscoverX Co. (contract measurement) scanMAX Kinase assay panel
How it was run: as §1

[15] = biological target: T15, kinases of the scanMAX Kinase assay panel (Homo sapiens, UniProt Q9UHD2); details: kinase TBK1; 1 uM in DMSO
T15 construct: purchased DiscoverX Co. (contract measurement) scanMAX Kinase assay panel
T15 sequence (Q9UHD2 1-729): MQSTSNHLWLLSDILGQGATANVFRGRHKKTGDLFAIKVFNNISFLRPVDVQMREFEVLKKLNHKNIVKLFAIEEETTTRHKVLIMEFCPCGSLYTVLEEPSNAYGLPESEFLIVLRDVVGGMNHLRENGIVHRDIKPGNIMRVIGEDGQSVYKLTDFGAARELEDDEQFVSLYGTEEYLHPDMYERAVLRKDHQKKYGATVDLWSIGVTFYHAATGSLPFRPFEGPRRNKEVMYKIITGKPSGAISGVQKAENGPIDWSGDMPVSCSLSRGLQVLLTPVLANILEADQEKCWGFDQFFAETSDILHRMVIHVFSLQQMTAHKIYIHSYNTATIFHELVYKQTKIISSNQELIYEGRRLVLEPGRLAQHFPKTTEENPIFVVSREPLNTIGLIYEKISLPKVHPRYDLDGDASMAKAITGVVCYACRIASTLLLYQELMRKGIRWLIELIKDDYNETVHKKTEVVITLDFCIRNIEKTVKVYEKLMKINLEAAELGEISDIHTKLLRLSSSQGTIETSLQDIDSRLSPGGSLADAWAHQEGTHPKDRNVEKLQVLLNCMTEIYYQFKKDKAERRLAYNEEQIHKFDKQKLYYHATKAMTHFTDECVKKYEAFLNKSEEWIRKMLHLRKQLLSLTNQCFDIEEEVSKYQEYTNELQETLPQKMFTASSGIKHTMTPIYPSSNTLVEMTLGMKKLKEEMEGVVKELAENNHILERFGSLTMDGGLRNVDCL
How it was run: as §1

Structure (SMILES)	remaining binding at 1 µM [1]	remaining binding at 1 µM [2]	remaining binding at 1 µM [3]	remaining binding at 1 µM [4]	remaining binding at 1 µM [5]	remaining binding at 1 µM [6]	remaining binding at 1 µM [7]	remaining binding at 1 µM [8]	remaining binding at 1 µM [9]	remaining binding at 1 µM [10]	remaining binding at 1 µM [11]	remaining binding at 1 µM [12]	remaining binding at 1 µM [13]	remaining binding at 1 µM [14]	remaining binding at 1 µM [15]
CC1(Nc2nc(Nc3cnn([C@H]4CCN(C5COC5)C[C@@H]4F)c3Cl)nc3[nH]cc(C#N)c23)CC1 [Example 52, 2-((5-chloro-1-((3S,4S)-3-fluoro-1-(oxetane-3-yl)piperidine-4-yl)-1H-pyrazole-4-yl)amino)((1-methylcyclopropyl)amino)-7H-pyrrolo[2,3-d]pyrimidine-5-carbonitrile]	19%	76%	0.35%	100%	100%	62%	41%	2.5%	42%	0%	0.05%	1.1%	6.3%	98%	4.8%
CNc1nc(Nc2ccc(C(=O)N3CCOCC3)cc2OC)nc2[nH]cc(C#N)c12 [Example 1, 2-((2-methoxy-4-(morpholine-4-carbonyl)phenyl)amino)-4-(methylamino)-7H-pyrrolo[2,3-d]pyrimidine-5-carbonitrile]	100%	100%	48%	93%	83%	100%	69%	93%	84%	0%	66%	90%	78%	100%	85%
CCNc1nc(Nc2ccc(C(=O)N3CCC(N4CCOCC4)CC3)cc2OC)nc2[nH]cc(C(F)(F)F)c12 [Example 104, (4-((4-(ethylamino)-5-(trifluoromethyl)-7H-pyrrolo[2,3-d]pyrimidine-2-yl)amino)-3-methoxyphenyl)(4-morpholinopiperidine-1-yl)methanone]	100%	95%	7.1%	100%	100%	96%	66%	100%	94%	1.2%	100%	83%	79%	100%	84%
